Measured values taken from patent US20250163119A1, “COMPOUNDS FOR THE TREATMENT OF DIABETES OR OBESITY” (Eli Lilly and Company, priority 2023, published 2025).
Several values for one entry are separate records, joined by “and”; a condition that tells them apart may be missing. Equal entries are not always repeated. *1 amine or outer side, *2 acyl side, *3 side chain or, on linkers, in order; H or OH if unused. Where a SMILES comes first, the peptide text is derived from it. Side-chain parts run from the residue outwards. [ ]: non-standard residue; d: D form. The star is where a group is joined. C20 diacid = O=C(O)CCCCCCCCCCCCCCCCCCC(=O)*; γGlu = O=C(O)[C@H](CCC(=O)[*:2])N[*:1]; αMeL = CC(C)C[C@](C)(N)C(=O)O; AEEA = NCCOCCOCC(=O)O

Tests used:
[1] = Pharmacokinetics in Yucatan mini-pigs, single subcutaneous or intravenous dose; assay type: in vivo
Experimental: Plasma concentrations of compounds were determined by LC/MS methods. For each assay, the compound and an internal standard (IS), were extracted from 100% mouse, rat, pig, or monkey plasma (70 μL) using Isopropanol-Methanol. Two distinct layers were formed upon centrifugation with the compound and the IS located in the supernatant layer. An aliquot of the supernatant (150 μL) was transferred to a Waters Sirocco Protein Precipitation Plate. The supernatant was eluted using a positive pressure manifold. The supernatant was mixed with 100-2 Water-Formic acid (400 μL) in a pretreated Sep-Pak tC18 SPE plate and eluted to waste. The peptide and IS were eluted with Acetonitrile-Formic acid (100 μL) in 2 steps (50 μL each step). The elution (40 μL) from SPE plate was mixed with diluent solution (1.875 μL 5× invitrosol and 3.125 μL 1% formic acid in water, 80 μL). A final sample (10 μl) was loaded onto a Xselect CSH C18 IS column (3.5 μm 2.1×20 mm). The column effluent was directed into a Thermo Fisher Scientific Orbitrap (Exploris 240) mass spectrometer for detection and quantitation.
Male Yucatan mini-pigs were administered a single subcutaneous dose or intravenous dose (19 or 99 nmol/kg) of compound in 40 mM Tris-HCl 5% D-mannitol (pH 8) at a volume of 0.01 or 0.05 mL/kg. Blood was collected from each animal at 0.083 (IV only), 0.5, 3, 6, 24, 48, 72, 96, 168, 240, 336, 408, and 504 hours postdose for pharmacokinetic characterization.

[2] = Pharmacokinetics in Sprague Dawley rats, single subcutaneous or intravenous dose (incl. 10, 30, 100 nmol/kg dose response); assay type: in vivo; settings: for Tmax: read-out: Tmax
[3] = system: MHC-II presented peptides on human dendritic cells; assay: MAPPS assay (MHC-Associated Peptide Proteomics); assay type: cell-based
Outline: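 Peptides eluted from anti-MHC-II immunoprecipitates of day-6 DC lysates were sequenced by MS, mapped onto the parent test molecule, and scored as percentage of donors presenting each region. DCs derived from donor CD14+ cells (IL-4, GM-CSF) received test molecules on day 4, then LPS maturation on day 5.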

[4] = male Yucatan pigs, single subcutaneous dose 99 nmol/kg, individual animal
[5] = male, Yucatan mini-pig, minipig, plasma, iv, 99 nmol/kg, single intravenous dose 99 nmol/kg, mean
[6] = single intravenous dose 99 nmol/kg, male Yucatan pigs, individual animal
[7] = male, Sprague Dawley, rat, plasma, iv, 197 nmol/kg, single intravenous dose 197 nmol/kg, individual animal
[8] = male, Sprague Dawley, rat, plasma, iv, 197 nmol/kg, single intravenous dose 197 nmol/kg, mean
[9] = male, Sprague Dawley, rat, plasma, sc, 197 nmol/kg, single subcutaneous dose 197 nmol/kg, individual animal
[10] = male, Sprague Dawley, rat, plasma, sc, 197 nmol/kg, single subcutaneous dose 197 nmol/kg, mean
[11] = single intravenous dose 197 nmol/kg, male Sprague Dawley rats, individual animal
[12] = single subcutaneous dose 197 nmol/kg, male Sprague Dawley rats, individual animal

CC[C@H](C)[C@H](NC(C)=O)C(=O)N[C@H](C(=O)N[C@H](C(=O)N[C@@H](CO)C(=O)N[C@@](C)(CC(C)C)C(=O)N[C@@H](CC(=O)O)C(=O)N[C@@H](C(=O)N1CCC[C@H]1C(=O)N[C@H](C(=O)NCC(=O)N[C@@](C)(CC(C)C)C(=O)N[C@@H](CC(C)C)C(=O)N[C@@H](CCC(N)=O)C(=O)N[C@H](C(=O)N[C@@H](CCCCN)C(=O)N[C@@H](CC(C)C)C(=O)N[C@@H](CCC(=O)O)C(=O)N[C@@H](CCC(N)=O)C(=O)N[C@@H](CCC(=O)O)C(=O)N[C@@H](CCCNC(=N)N)C(=O)N[C@@H](C)C(=O)N[C@@H](CCC(=O)O)C(=O)N[C@@H](CCCCN)C(=O)N[C@@H](C)C(=O)N[C@@H](CCCNC(=N)N)C(=O)N[C@@H](CCC(N)=O)C(=O)N[C@@H](CCC(N)=O)C(=O)N[C@@H](C)C(=O)N[C@@H](CCCCNC(=O)COCCOCCNC(=O)COCCOCCNC(=O)CC[C@H](NC(=O)CCCCCCCCCCCCCCCCCCC(=O)O)C(=O)O)C(=O)N[C@@H](CCC(=O)O)C(=O)N[C@@H](CC(N)=O)C(=O)N[C@H](C(=O)N[C@@H](CCC(=O)O)C(=O)N[C@H](C(=O)N[C@@H](CC(C)C)C(=O)N[C@@H](C)C(=O)N[C@@H](CCC(N)=O)C(=O)N[C@H](C(N)=O)C(C)C)[C@@H](C)CC)[C@@H](C)O)[C@@H](C)CC)[C@@H](C)O)C(C)C)[C@@H](C)O)C(C)C [SEQ ID NO: 29, Ac-IVTS αMeL D (D-Val) PTG αMeL LQIKLEQERAEKARQ QAK((2-[2-(2-Amino-ethoxy)-ethoxy]-acetyl)2-γE-CO-(CH2)18-CO2H)ENTEILAQV-NH2] (Ac-IVTS[αMeL]D[dV]PTG[αMeL]LQIKLEQERAEKARQQAK([AEEA-AEEA-γGlu-C20 diacid])ENTEILAQV-NH2)
AUC0-inf ([1]; Yucatan mini-pig, minipig, plasma, sc, male Yucatan pigs, single subcutaneous dose 99 nmol/kg, Mean, read-out: AUC0-inf): 76.4 µM·h
Cmax ([1]; Yucatan mini-pig, minipig, plasma, sc, male Yucatan pigs, single subcutaneous dose 99 nmol/kg, Mean, read-out: Cmax): 259 nM
AUC0-inf [1, 4]: 128 µM·h and 67.5 µM·h and 33.8 µM·h
CL/F [1, 4]: 1.03 mL/h/kg and 2.06 mL/h/kg and 3.56 mL/h/kg
Cmax [1, 4]: 497 nM and 201 nM and 79.6 nM
T1/2 [1, 4]: 292 h and 185 h
Tmax [1, 4]: 168 h
clearance ([1]; male, Yucatan mini-pig, minipig, plasma, iv, 99 nmol/kg, single intravenous dose 99 nmol/kg, individual animal): 0.321 mL/h/kg
clearance [1, 5]: 0.356 mL/h/kg
half-life [1, 5]: 166 h
half-life ([1]; male, Yucatan mini-pig, minipig, plasma, sc, 99 nmol/kg, single subcutaneous dose 99 nmol/kg, Mean): 214 h
CL/F ([1]; male, Yucatan mini-pig, minipig, plasma, sc, 99 nmol/kg, single subcutaneous dose 99 nmol/kg, Mean, read-out: CL/F (converted)): 2.22 mL/h/kg
Tmax ([1]; male, Yucatan mini-pig, minipig, plasma, sc, 99 nmol/kg, single subcutaneous dose 99 nmol/kg, Mean, read-out: Tmax): 72 h
half-life ([1]; male, Yucatan mini-pig, minipig, plasma, sc, 99 nmol/kg, single subcutaneous dose 99 nmol/kg, individual animal): 166 h
AUC0-inf ([1]; minipig, plasma, single intravenous dose 99 nmol/kg, male Yucatan pigs, mean, read-out: AUC0-inf): 285 µM·h
C0 ([1]; minipig, plasma, single intravenous dose 99 nmol/kg, male Yucatan pigs, mean, read-out: C0): 2490 nM
AUC0-inf [1, 6]: 307 µM·h and 220 µM·h and 329 µM·h
C0 [1, 6]: 2530 nM and 2560 nM and 2380 nM
CL [1, 6]: 0.448 mL/h/kg and 0.299 mL/h/kg
T1/2 [1, 6]: 109 h and 126 h and 263 h
clearance [2, 7]: 1.66 mL/h/kg
half-life [2, 7]: 41.7 h
clearance [2, 8]: 1.47 mL/h/kg
half-life [2, 8]: 45.5 h
half-life [2, 9]: 52.8 h
CL/F ([2]; male, Sprague Dawley, rat, plasma, sc, 197 nmol/kg, single subcutaneous dose 197 nmol/kg, individual animal, read-out: CL/F (converted)): 2.35 mL/h/kg
Tmax [2, 9]: 24 h
half-life [2, 10]: 47 h
CL/F ([2]; male, Sprague Dawley, rat, plasma, sc, 197 nmol/kg, single subcutaneous dose 197 nmol/kg, mean, read-out: CL/F (converted)): 2.48 mL/h/kg
Tmax [2, 10]: 24 h
AUC0-inf ([2]; rat, plasma, sc, single subcutaneous dose 197 nmol/kg, male Sprague Dawley rats, mean, read-out: AUC0-inf): 89.9 µM·h
Cmax ([2]; rat, plasma, sc, single subcutaneous dose 197 nmol/kg, male Sprague Dawley rats, mean, read-out: Cmax): 815 nM
AUC0-inf ([2]; rat, plasma, single intravenous dose 197 nmol/kg, male Sprague Dawley rats, mean, read-out: AUC0-inf): 136 µM·h
C0 ([2]; rat, plasma, single intravenous dose 197 nmol/kg, male Sprague Dawley rats, mean, read-out: C0): 4270 nM
AUC0-inf [2, 11]: 119 µM·h and 152 µM·h and 136 µM·h
C0 [2, 11]: 6910 nM and 4840 nM and 1050 nM
CL [2, 11]: 1.30 mL/h/kg and 1.45 mL/h/kg
T1/2 [2, 11]: 45.2 h and 49.6 h
AUC0-inf [2, 12]: 96.8 µM·h and 82.9 µM·h
CL/F [2, 12]: 2.61 mL/h/kg
Cmax [2, 12]: 881 nM and 749 nM
T1/2 [2, 12]: 41.1 h
MAPPS Assay >10 donors with diverse MHC ([3]; donors displaying MHC-II peptides / donors tested): 8/30
peptides displayed on MHC-II complexes ([3]; human dendritic cells from normal donors): at least one peptide cluster on MHC-II complexes in a subset of donors
immunogenicity compared with SEQ ID NO:54 ([3]; in the MAPPs assay and/or the T cell proliferation assay): substantial improvements in immunogenicity over a compound comprising SEQ ID NO:54
MAPPS Assay >10 donors with diverse MHC ([3]; percentage of donors displaying MHC-II peptides): 27%
